Values joined by “and” are separate entries in the source; they are usually repeats but may differ in a detail not shown here. Identical values can stand only once. One block for each compound: values may come before it.
System: 362531-283-R-J2-PDC complex spheroid viability
Assay: Anticancer human tumor 362531-283-R-J2-PDC patient-derived colon adenocarcinoma cell line growth inhibition [RAS]
Settings: for viability, T/C: stronger effect = lower value
How it was run: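 Agents were tested in combination matrices in half-log decrements from a top concentration at or near clinical Cmax (10 microM if undetermined). Targets were multi-cell spheroids of tumour lines plus HUVEC and MSC stromal cells.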
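Also: spheroids exposed to the agents for 7 days before readout.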
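For viability, T/C in this document: luminescence viability as percent of DMSO vehicle control wells.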

IC50 (curve of first compound, second compound 0.0316 µM): 42.2 nM
IC50 (curve of first compound, second compound 0.1 µM): 22.4 nM
IC50 (curve of first compound, second compound 0.316 µM): 16.6 nM
IC50 (curve of first compound, second compound 1 µM): 11.4 nM
IC50 (curve of first compound, second compound 3.16 µM): 2.45 nM
IC50 (curve of first compound, second compound 10 µM): < 0.949 nM
Compound: CCc1c2c(nc3ccc(O)cc13)-c1cc3c(c(=O)n1C2)COC(=O)[C@]3(O)CC + C#Cc1c(F)ccc2cc(O)cc(-c3ncc4c(N5CC6CCC(C5)N6)nc(OCC56CCCN5CC(F)C6)nc4c3F)c12
viability, T/C (second compound 0.0316 µM, first compound 0.000949 µM): 95.2%
viability, T/C (second compound 0.0316 µM, first compound 0.003 µM): 91.8%
viability, T/C (second compound 0.0316 µM, first compound 0.00949 µM): 71.5%
viability, T/C (second compound 0.0316 µM, first compound 0.03 µM): 60.6%
viability, T/C (second compound 0.0316 µM, first compound 0.0949 µM): 32.3%
viability, T/C (second compound 0.0316 µM, first compound 0.3 µM): 18%
viability, T/C (second compound 0.1 µM, first compound 0.000949 µM): 92.7%
viability, T/C (second compound 0.1 µM, first compound 0.003 µM): 85.8%
viability, T/C (second compound 0.1 µM, first compound 0.00949 µM): 64.3%
viability, T/C (second compound 0.1 µM, first compound 0.03 µM): 47.2%
viability, T/C (second compound 0.1 µM, first compound 0.0949 µM): 25.3%
viability, T/C (second compound 0.1 µM, first compound 0.3 µM): 21.2%
viability, T/C (second compound 0.316 µM, first compound 0.000949 µM): 84.9%
viability, T/C (second compound 0.316 µM, first compound 0.003 µM): 84.3%
viability, T/C (second compound 0.316 µM, first compound 0.00949 µM): 57.7%
viability, T/C (second compound 0.316 µM, first compound 0.03 µM): 40.5%
viability, T/C (second compound 0.316 µM, first compound 0.0949 µM): 18.2%
viability, T/C (second compound 0.316 µM, first compound 0.3 µM): 13.9%
viability, T/C (second compound 1 µM, first compound 0.000949 µM): 72.7%
viability, T/C (second compound 1 µM, first compound 0.003 µM): 76%
viability, T/C (second compound 1 µM, first compound 0.00949 µM): 51.2%
viability, T/C (second compound 1 µM, first compound 0.03 µM): 30.2%
viability, T/C (second compound 1 µM, first compound 0.0949 µM): 18.5%
viability, T/C (second compound 1 µM, first compound 0.3 µM): 12.1%
viability, T/C (second compound 3.16 µM, first compound 0.000949 µM): 58.2%
viability, T/C (second compound 3.16 µM, first compound 0.003 µM): 50.5%
viability, T/C (second compound 3.16 µM, first compound 0.00949 µM): 29%
viability, T/C (second compound 3.16 µM, first compound 0.03 µM): 19.8%
viability, T/C (second compound 3.16 µM, first compound 0.0949 µM): 16.1%
viability, T/C (second compound 3.16 µM, first compound 0.3 µM): 7.69%
viability, T/C (second compound 10 µM, first compound 0.000949 µM): 39.3%
viability, T/C (second compound 10 µM, first compound 0.003 µM): 26.9%
viability, T/C (second compound 10 µM, first compound 0.00949 µM): 18.8%
viability, T/C (second compound 10 µM, first compound 0.03 µM): 16.2%
viability, T/C (second compound 10 µM, first compound 0.0949 µM): 12.3%
viability, T/C (second compound 10 µM, first compound 0.3 µM): 8.32%

IC50 (curve of compound): > 10000 nM and 9270 nM and 6010 nM
Compound: CC1(O)CCCC1n1c(=O)c(C(F)F)cc2cnc(NC3CCN(S(C)(=O)=O)CC3)nc21 (configuration not stated)
viability, T/C (compound 0.0316 µM): 103% (2×) and 94% and 97.4%
viability, T/C (compound 0.1 µM): 104% [middle of 4 runs]
viability, T/C (compound 0.316 µM): 89.9% [middle of 4 runs]
viability, T/C (compound 3.16 µM): 68.3% [middle of 4 runs]

Source: PubChem BioAssay AID2060909 (Molecular Pharmacology Branch, DTP, NCI, 2025)
